Reference: paper PMC12845422, “Characterization of a Novel Family of Contilisant + Belinostat Multitarget Small Molecules in Glioblastoma” (Pharmaceuticals, 2025)
Values joined by “and” are separate entries in the source; they are usually repeats but may differ in a detail not shown here. Identical values can stand only once. “Also recorded” adds a separate entry of the source.

Columns and labels:
[1] = tested on: GNS166 cells; assay: Cell cycle analysis by flow cytometry; assay type: cell-based; details: 5 μM
Experimental: Cells were harvested using accutase and washed with PBS. Then, 1·10^6 cells were fixed with 70% cold ethanol at −20 °C for at least 24 h, and incubated with 0.5% Triton X-100 and 25 µg/mL RNase A in PBS for 30 minutes at room temperature. Then, DNA was stained with 25 ng/mL propidium iodide for 15 minutes and samples were analyzed using a CytoFLEX flow cytometer (Beckman Coulter Co., Brea, CA, USA).

[2] = tested on: HDAC6; parameters: method as in PMID 40109740; details: read-out: HDAC inhibitory activity HDAC6 (IC50); cited from earlier work
[3] = tested on: RWP1 pancreatic cancer cells; assay: MTT cell viability, RWP1; assay type: cell-based; details: MSM 0–10 μM
Experimental: (§1) Cells were seeded at a density of 1.5 × 10^3 cells/well (conventional cell lines) or 5 × 10^3 cells/well (GNS and NHA) in 96-well plates and incubated overnight. Cells were then treated with increasing concentrations of MSMs. After 72 h, cells were incubated for 3.5 h with MTT, after which absorbance at 570 nm was measured. IC50 values were calculated using GraphPad Prism software.

[4] = tested on: MKN45 gastric cancer cells; assay: MTT cell viability, MKN45; assay type: cell-based; details: Homo sapiens, MKN-45; MSM 0–10 μM
Experimental: as §1

[5] = tested on: H1299 lung cancer cells; assay: MTT cell viability, H1299; assay type: cell-based; details: Homo sapiens, NCI-H1299; MSM 0–10 μM
Experimental: as §1

[6] = tested on: U87-MG cells; assay: MTT cell viability, U87-MG; assay type: cell-based; details: Homo sapiens, U-87 MG, 72 h
Experimental: as §1

[7] = tested on: Normal Human Astrocytes (NHAs); assay: MTT cell viability, normal human astrocytes; assay type: cell-based; details: Astrocyte, MSM 0–100 μM, 72 h, read-out: IC50 in NHA
Experimental: as §1

[8] = tested on: HDAC1; parameters: method as in PMID 40109740; details: read-out: HDAC inhibitory activity HDAC1 (IC50); cited from earlier work
[9] = In vivo toxicity assay; details: intraperitoneal, 15 mg/kg
Experimental: Briefly, 15 mg/kg of MTP150 or vehicle (DMSO) was administered intraperitoneally to athymic nude-Foxn1^nu mice on a 5-days-on, 2-days-off schedule. Body weight was monitored to assess MSM potential toxicity. At the end-point, macroscopic analysis of the different organs was carried out.

[10] = tested on: U87-MG subcutaneous tumors; assay: In vivo carcinogenesis assay, monotherapy, subcutaneous U87-MG tumors; parameters: species or system mice
Experimental: (§2) Subcutaneous tumor growth was initiated by injecting 5 × 10^5 cells into both hind flanks of athymic nude-Foxn1^nu mice. Once the tumors reached 25–50 mm^3, mice were allocated to treatment groups by gender and tumor size. For monotherapy, mice were treated intratumorally with vehicle (DMSO dilution) or 200 µM of MTP150 or intraperitoneally with 15 mg/kg, on a 5-days-on, 2-days-off schedule. In combination therapy, 0.5 mg/Kg TMZ or vehicle was administered intraperitoneally during the first 5 days; intratumoral MTP150 or vehicle was delivered with the same schedule. After 4 weeks, mice were sacrificed and tumors were extracted.

[11] = tested on: GNS179 patient-derived GSCs; assay: MTT cell viability, GNS179; assay type: cell-based
Experimental: as §1

[12] = tested on: U251-MG cells; assay: MTT cell viability, U251-MG; assay type: cell-based
Experimental: as §1

[13] = target: BChE (Homo sapiens, UniProt P06276); assay: BChE inhibition, Ellman's colorimetric method
Experimental: To assess ChEs inhibition, Ellman’s colorimetric method was followed. […] After incubation, the substrate solution (acetylthiocholine or butyrylthiocholine iodide, Sigma-Aldrich, at 1.5 mM) was added, and absorbance was recorded at 405 nm every minute for 10 min. […] Enzyme kinetics were evaluated with varying substrate and inhibitor concentrations, and the results were plotted as Lineweaver–Burk plots using GraphPad Prism software. The inhibition constant (Ki) was estimated from the intersection on the x-axis in secondary plots.

[14] = Cell viability (MTT) of TMZ and MTP150 alone and combined; assay type: cell-based; details: 250 µM TMZ, 0.5 µM MTP150, 72 h
Experimental: as §1

[15] = tested on: subcutaneous tumors; assay: In vivo carcinogenesis assay, combination with TMZ; parameters: species or system mice
Experimental: as §2

[16] = target: T1, recombinant hMAO-B (Homo sapiens, UniProt P27338); assay: MAO-B inhibition assay; assay type: biochemical; details: 30 min preincubation, 37 °C
T1 sequence (P27338 1-520): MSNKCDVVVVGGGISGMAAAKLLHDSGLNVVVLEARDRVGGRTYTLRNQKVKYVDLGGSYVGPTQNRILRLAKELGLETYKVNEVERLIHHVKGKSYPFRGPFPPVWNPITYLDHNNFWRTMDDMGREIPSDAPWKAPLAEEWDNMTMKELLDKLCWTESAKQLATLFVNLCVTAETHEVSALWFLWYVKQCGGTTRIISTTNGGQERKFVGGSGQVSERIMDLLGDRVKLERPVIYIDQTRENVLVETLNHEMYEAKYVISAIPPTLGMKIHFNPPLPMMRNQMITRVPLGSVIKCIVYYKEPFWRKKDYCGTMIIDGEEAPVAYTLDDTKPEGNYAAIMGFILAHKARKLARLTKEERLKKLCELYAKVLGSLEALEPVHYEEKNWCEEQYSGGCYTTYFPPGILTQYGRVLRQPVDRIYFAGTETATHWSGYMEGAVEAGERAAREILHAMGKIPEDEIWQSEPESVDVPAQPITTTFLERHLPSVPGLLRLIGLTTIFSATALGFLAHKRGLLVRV
Experimental: Subsequently, 200 U/mL horseradish peroxidase, 20 mM Ampliflu Red and 100 mM tyramine hydrochloride (Sigma-Aldrich) were added, and absorbance was measured at 570 nm every 5 min for 30 min. The inhibition percentage was calculated from these absorbance values.

[17] = tested on: GNS179 cells; assay: Immunofluorescence proliferation / apoptosis, GNS179; assay type: cell-based; details: dose-dependent
Experimental: (§3) For immunofluorescence assays, cells were seeded at a density of 2 × 10^4 cells/well in 8-well immunofluorescence chambers (LabTek Thermo, Waltham, MA, USA) and incubated overnight. Following 48 h of treatment, cells were fixed with 4% PFA. Primary antibodies against phospho-Histone H3 (p-H3, Abcam) and Caspase 3 (R&D Systems, Minneapolis, MN, USA) and secondary antibodies Alexa Fluor anti-mouse and anti-rabbit (Invitrogen, Carlsbad, CA, USA) were used. Nuclei were stained with DAPI (Sigma-Aldrich). Images were acquired using an Axio Observer 7 epifluorescence microscope, and quantification was performed with Qupath software version 0.6.0.

[18] = tested on: GNS166 cells; assay: Western blot of acetylated α-tubulin and acetylated H3, GNS166; assay type: cell-based; details: increasing concentrations
Experimental: (§4) Sodium dodecyl sulfate-polyacrylamide gel electrophoresis was performed. Primary antibodies against HDAC1 (Abcam, Waltham, MA, USA) and HDAC6 (Cell Signaling, Danvers, MA, USA), along with their downstream targets, acetylated H3 (Cell Signaling) and acetylated α-tubulin (Abcam), were used. β-actin (Sigma-Aldrich) served as endogenous control. Secondary antibodies conjugated to horseradish peroxidase (anti-rabbit or anti-mouse; Cell Signaling) were applied. Proteins were detected using the iBright imaging system and either NOVEX ECL Chemi Substrate or SuperSignal West Femto Maximum Sensitivity Substrate (ThermoFisher, Waltham, MA, USA).

[19] = tested on: MKN45, RWP1 and H1299 cancer cells; assay: MTT cell viability, summary over gastric, pancreatic and lung cancer cells; assay type: cell-based; details: range over the three cell lines; read-out: IC50 range across MKN45, RWP1 and H1299
Experimental: as §1

[20] = tested on: U87-MG cells; assay: Western blot of acetylated α-tubulin and acetylated H3, U87-MG; assay type: cell-based; details: 0.5, 1 and 10 µM
Experimental: as §4

[21] = tested on: U251-MG cells; assay: Immunofluorescence proliferation / apoptosis, U251-MG; assay type: cell-based; details: dose-dependent
Experimental: as §3

[22] = intraperitoneal treatment, immunohistochemistry at end-point
[23] = intratumoral, immunohistochemistry at end-point

Chain of BChE (P06276 29-602, species assumed): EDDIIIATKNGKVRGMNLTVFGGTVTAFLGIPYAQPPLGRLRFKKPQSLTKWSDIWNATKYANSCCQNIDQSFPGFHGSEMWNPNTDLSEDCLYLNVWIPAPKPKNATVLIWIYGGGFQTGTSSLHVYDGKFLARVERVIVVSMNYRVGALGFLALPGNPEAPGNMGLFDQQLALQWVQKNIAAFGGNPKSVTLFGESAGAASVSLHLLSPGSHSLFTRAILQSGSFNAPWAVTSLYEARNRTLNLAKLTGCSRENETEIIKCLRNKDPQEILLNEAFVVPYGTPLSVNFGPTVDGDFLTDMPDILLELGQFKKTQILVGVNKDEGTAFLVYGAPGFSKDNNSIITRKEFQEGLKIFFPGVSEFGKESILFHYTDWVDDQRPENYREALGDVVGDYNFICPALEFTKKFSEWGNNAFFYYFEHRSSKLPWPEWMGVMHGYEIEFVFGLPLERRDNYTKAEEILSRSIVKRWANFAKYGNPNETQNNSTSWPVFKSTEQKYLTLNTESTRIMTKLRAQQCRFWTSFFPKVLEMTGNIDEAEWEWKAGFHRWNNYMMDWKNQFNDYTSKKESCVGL

For `O=C(/C=C/c1cccc(S(=O)(=O)n2ccc3cc(OCc4ccccc4)ccc32)c1)NO` [MTP156], the cell cycle alterations [1] is given as “accumulation of cells in the subG0 phase”, the IC50 [2] is given as 330 nM and the IC50 [3] is given as 1170 nM. For the same compound, the IC50 [4] was 5740 nM, the IC50 [5] was 6630 nM and the IC50 [6] was 3.13 µM. The IC50 [7] was 7690 nM and the IC50 [8] was 210 nM.
Compound `COc1ccc2c(ccn2S(=O)(=O)c2cccc(/C=C/C(=O)NO)c2)c1` [MTP142] has an IC50 [3] of 970 nM, an IC50 [4] of 3270 nM and an IC50 [5] of 5640 nM. For the same compound, the IC50 [6] was 3.22 µM and the IC50 [7] was 9780 nM.
In the case of `O=C(/C=C/c1cccc(S(=O)(=O)Nc2ccccc2)c1)NO` [Belinostat], the cell cycle alterations [1] is reported as “accumulation of cells in the subG0 phase”.
In the case of `O=C(/C=C/c1cccc(S(=O)(=O)n2ccc3cc(OCCCN4CCCCC4)ccc32)c1)NO` [MTP150], the “animal body weight compared to controls” value ([9]; 5-days-on 2-days-off, 4 weeks) is reported as “did not produce any significant changes in animal body weight”, the “macroscopic analysis of post-mortem tissues” value ([9]; end-point) is reported as “did not show clear differences” and the “oncospheres generated by cells dissociated from treated tumors” value ([10]; 10 days in the absence of treatment) is reported as “significantly fewer oncospheres”. For the same compound, the average tumor volume ([10]; intraperitoneal treatment, U87-MG subcutaneous tumors) was ~ 270 mm^3, the “acetyl-α-tubulin and acetyl H3 staining in tumors” value [10, 22] was “promotes an increase in both” and the “cleaved Caspase 3 staining in tumors” value [10, 22] was “increase in apoptosis”. For the same compound, the average tumor volume ([10]; intratumoral 200 µM) was ~ 480 mm^3, the “reduction in final tumor volume vs control” value ([10]; intratumoral 200 µM) was ~ 50% and the “tumor weight, lower mass than controls” value ([10]; intratumoral 200 µM, end-point day 39) was > 40%. The “PCNA positive cells in resected tumors” value [10, 23] was “fewer PCNA positive cells”, the “cleaved Caspase 3 in resected tumors” value [10, 23] was “increased cleaved Caspase 3” and the “tumor inhibition compared with Belinostat” value ([10]; relative tumor inhibition) was “more intense tumor inhibition”. For the same compound, the IC50 [11] was 6.03 µM and 6 µM, the cell cycle alterations [1] was “accumulation of cells in the subG0 phase” and the IC50 ([12]; Homo sapiens, U-251, MTT) was 1.02 µM. It also gave an IC50 ([12]; MTT) of 1 µM, an IC50 [13] of 8090 nM and a Ki [13] of 2510 nM. For the same compound, the BChE inhibition mechanism ([13]; Lineweaver–Burk plot) was “mixed inhibition mechanism”, the inhibition at 10 µM ([13]; read-out: BChE inhibition) was 60% and the viability at 72 h [14] was 37%. For the same compound, the “antitumor activity compared with Belinostat” value ([15]; monotherapy and combination with TMZ) was “greater antitumor activity”, the IC50 [16] was 1.5 µM and the “apoptosis (Caspase 3-positive cells)” value [17] was “increased”. For the same compound, the “proliferation (p-H3- and Ki67-positive cells)” value [17] was “reduced”, the IC50 [3] was 100 nM and the “levels of acetylated α-tubulin and acetylated H3” value [18] was “higher levels of acetylated α-tubulin and H3 than both Belinostat and SAHA”. It also gave an IC50 [4] of 200 nM, an IC50 [19] of 100 to 700 nM and an IC50 [5] of 700 nM. The IC50 [6] was 0.55 µM, the IC50 [7] was 5720 nM and the “levels of acetylated α-tubulin and acetylated H3” value [20] was “highest levels of acetylated proteins; also recorded: higher levels of acetylated α-tubulin and H3 than both Belinostat and SAHA”. For the same compound, the “apoptosis (Caspase 3-positive cells)” value [21] was “increased” and the “proliferation (p-H3- and Ki67-positive cells)” value [21] was “reduced”.
With `Cn1nnc2c(C(N)=O)ncn2c1=O` [TMZ, temozolomide, reference compound] the average tumor volume ([15]; TMZ 0.5 mg/Kg i.p. first 5 days, intratumoral MTP150 or vehicle) was ~ 580 mm^3.
